Assay results taken from patent US8389523B2, “Substituted quinoxaline and an agrochemical composition thereof” (Kumiai Chemical Industry Co., Ltd., priority 2007, dated 2013).

Columns and labels:
Assay type in all cases: in vivo
Set-up in all cases: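 grade 0 to 5 of growth suppression where 5 is 90% or more and 0 below 10%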
[1] = tested on: Scirpus juncoides Roxb. var. ohwianus. T. Koyama; experiment: Herbicidal effects in paddy field soil treatment (Test Example 1); details: paddy field soil treatment; 1000 g of the active ingredient per hectare; wettable powder added dropwise on water surface; 21st day after treatment
In short: (§1)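 Application rate 1000 g a.i./ha, delivered as water-diluted wettable powder onto flooded (3 cm) paddy soil one day after sowing. Plants kept in a greenhouse and evaluated for herbicidal effect on day 21 post-treatment.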

[2] = tested on: Monochoria vaginalis (Burm. f.) Presl var. plantaginea (Roxb.) Solms-Laub.; experiment: as above; details: paddy field soil treatment; 1000 g of the active ingredient per hectare; wettable powder added dropwise on water surface; 21st day after treatment
In short: as §1

[3] = tested on: Echinochloa oryzicola Vasing; experiment: as above; details: paddy field soil treatment; 1000 g of the active ingredient per hectare; wettable powder added dropwise on water surface; 21st day after treatment
In short: as §1

Amaranthus viridis L. [4] = experiment: Herbicidal effects in upland field foliar treatment (Test Example 3); details: criteria of Table 138; for herbicidal effects on Amaranthus viridis L.: 1000 g of the active ingredient per hectare, 14th day after the treatment, wettable powder; for herbicidal effect (index) on Amaranthus viridis L.: 1000 g active ingredient per hectare, 14th day after treatment
In short: (§2)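 Foliar spray of diluted wettable powder, 1000 g a.i./ha in 1000 L/ha, onto two-week-old greenhouse-grown seedlings in upland field soil. Plants kept in the greenhouse, with effect rated on a criteria scale at day 14.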

[5] = tested on: Abutilon theophrasti medicus; experiment: as above; details: criteria of Table 138; for herbicidal effects on Abutilon theophrasti medicus: 1000 g of the active ingredient per hectare, 14th day after the treatment, wettable powder; for herbicidal effect (index) on Abutilon theophrasti medicus: 1000 g active ingredient per hectare, 14th day after treatment
In short: as §2

[6] = tested on: Echinochloa crus-galli (L.) P. Beauv. var. crus-galli; experiment: as above; details: criteria of Table 138; for herbicidal effects on Echinochloa crus-galli (L.) P. Beauv. var. crus-galli: 1000 g of the active ingredient per hectare, 14th day after the treatment, wettable powder; for herbicidal effect (index) on Echinochloa crus-galli (L.) P. Beauv. var. crus-galli: 1000 g active ingredient per hectare, 14th day after treatment
In short: as §2

Amaranthus viridis L. [7] = experiment: Herbicidal effects in upland field soil treatment (Test Example 2); details: 1000 g active ingredient per hectare, 21st day after treatment, criteria of Table 138
In short: (§3)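 Herbicidal effect graded 21 days after treatment, plants kept in greenhouse. Treatment was a soil-surface spray of wettable powder in water, 1000 g a.i./ha in 1000 L/ha, applied after sowing and covering seeds.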

[8] = tested on: Abutilon theophrasti medicus; experiment: as above; details: 1000 g active ingredient per hectare, 21st day after treatment, criteria of Table 138
In short: as §3

| SMILES | Herbicidal effects index, Scirpus juncoides Roxb. var. ohwianus. T. Koyama [1] | Herbicidal effects index, Monochoria vaginalis (Burm. f.) Presl var. plantaginea (Roxb.) Solms-Laub. [2] | Herbicidal effects index, Echinochloa oryzicola Vasing [3] | herbicidal effects on Amaranthus viridis L. (Amaranthus viridis L. [4]) | herbicidal effects on Abutilon theophrasti medicus [5] | herbicidal effects on Echinochloa crus-galli (L.) P. Beauv. var. crus-galli [6] | herbicidal effect (index) on Amaranthus viridis L. (Amaranthus viridis L. [7]) | herbicidal effect (index) on Abutilon theophrasti medicus [8] | herbicidal effect (index) on Amaranthus viridis L. (Amaranthus viridis L. [4]) | herbicidal effect (index) on Abutilon theophrasti medicus [5] | herbicidal effect (index) on Echinochloa crus-galli (L.) P. Beauv. var. crus-galli [6] |
| --- | --- | --- | --- | --- | --- | --- | --- | --- | --- | --- | --- |
| CC(C)n1c(=O)c(C(=O)C2=C(O)CCCC2=O)nc2cccnc21 [III-13] | 5 | 5 | 5 | 5 | 5 | 4 | 5 | 5 | – | – | – |
| O=C1CCCC(O)=C1C(=O)c1nc2cccnc2n(Cc2ccccc2C(F)(F)F)c1=O [III-117] | 5 | 5 | 5 | 5 | 5 | 5 | 5 | 5 | – | – | – |
| O=C(C1=C(O)C2CCC(C2)C1=O)c1nc2ccccc2n(-c2ccc(Cl)cc2)c1=O (stereo not drawn) [II-14] | 5 | 5 | 5 | 5 | 4 | 5 | 5 | 5 | – | – | – |
| O=C1CCCC(O)=C1C(=O)c1nc2ccccc2n(-c2cccc(Cl)c2)c1=O [II-11] | 5 | 5 | 5 | – | – | – | 5 | 5 | 5 | 5 | 5 |
| O=C(C1=C(O)C2CCC(C2)C1=O)c1nc2ccccc2n(-c2ccccc2)c1=O (stereo not drawn) [II-4] | 5 | 5 | 5 | – | – | – | 5 | 4 | 5 | 5 | 4 |
| Cc1cc(-n2c(=O)c(C(=O)C3=C(O)CCCC3=O)nc3cc(F)ccc32)no1 [I-281] | 5 | 5 | 5 | – | – | – | 5 | 5 | 5 | 5 | 5 |
| Cc1ccc(-n2c(=O)c(C(=O)C3=C(O)CCCC3=O)nc3ccccc32)cc1C [II-211] | 5 | 5 | 5 | 5 | 5 | 5 | 5 | 5 | – | – | – |
| CSCn1c(=O)c(C(=O)C2=C(O)CCCC2=O)nc2ccccc21 [I-70] | 5 | 5 | 5 | – | – | – | 5 | 5 | 5 | 5 | 5 |
| CCCn1c(=O)c(C(=O)C2=C(O)CCCC2=O)nc2ccccc21 [Compound I-12] | 5 | 5 | 5 | – | – | – | 5 | 5 | 5 | 5 | 4 |
| COc1cccc(-n2c(=O)c(C(=O)C3=C(O)CCCC3=O)nc3ccccc32)c1 [II-57] | 5 | 5 | 5 | 5 | 5 | 5 | 5 | 5 | – | – | – |
| O=C1CCCC(O)=C1C(=O)c1nc2ccc(F)cc2n(-c2ccc3c(c2)OCCO3)c1=O [II-242] | 5 | 5 | 5 | 5 | 4 | 5 | 5 | 4 | – | – | – |
| CCOC(=O)Cn1c(=O)c(C(=O)C2=C(O)CCCC2=O)nc2cccnc21 [III-96] | 5 | 5 | 5 | 5 | 5 | 5 | 5 | 5 | – | – | – |
| Cc1nc(-n2c(=O)c(C(=O)C3=C(O)CCCC3=O)nc3ccccc32)no1 [I-163] | 5 | 5 | 4 | – | – | – | 5 | 5 | 5 | 5 | 4 |
| Cc1cc(Cn2c(=O)c(C(=O)C3=C(O)CCCC3=O)nc3ccccc32)on1 [I-213] | 5 | 5 | 4 | – | – | – | 5 | 5 | 5 | 5 | 5 |
| Cn1c(=O)c(C(=O)C2=C(O)C3CCC(C3)C2=O)nc2cccnc21 (stereo not drawn) [III-5] | 5 | 5 | 5 | 5 | 5 | 5 | 4 | 5 | – | – | – |
